Values quoted from earlier work, collected in patent US20240366636A1, “ORAL CANNABINOID PHARMACEUTICAL COMPOSITIONS AND METHODS OF TREATING INFLAMMATORY GASTROINTESTINAL DISORDERS” (Curio IP, LLC, priority 2022, published 2024).

How the values were obtained:
cannabinoid CB2 receptor = cannabinoid CB2 receptor (Homo sapiens, UniProt P34972)
[1] = humans
[2] = test system: DNBS-induced intestinal inflammation; conditions: murine

cannabinoid CB2 receptor, sequence (P34972 whole entry): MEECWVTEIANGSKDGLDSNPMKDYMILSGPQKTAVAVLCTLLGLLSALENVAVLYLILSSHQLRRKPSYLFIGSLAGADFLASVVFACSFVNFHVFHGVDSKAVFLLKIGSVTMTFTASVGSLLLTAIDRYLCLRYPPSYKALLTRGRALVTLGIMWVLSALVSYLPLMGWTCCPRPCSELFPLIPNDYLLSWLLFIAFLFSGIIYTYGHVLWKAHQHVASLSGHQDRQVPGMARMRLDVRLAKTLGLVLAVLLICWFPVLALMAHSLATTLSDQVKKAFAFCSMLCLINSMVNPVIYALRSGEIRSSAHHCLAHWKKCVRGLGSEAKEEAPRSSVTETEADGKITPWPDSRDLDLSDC

For `C=C(C)[C@@H]1CCC(C)=C[C@H]1c1c(O)cc(CCCCC)cc1O` [CBD, cannabidiol], which “affinity for CB2 receptor” value (cannabinoid CB2 receptor) is on record?
The value was “low affinity”.

And the oral bioavailability [1]?
The oral bioavailability was “approximately 6%”.

With `CCCCCc1cc(O)c2c(c1)OC(C)(C)[C@@H]1CCC(C)=C[C@@H]21` [THC, (−)-(6aR,10aR)-6,6,9-trimethyl-3-pentyl-6a,7,8,10a-tetrahydro-6H-benzo[c]chromen-1-ol] as the compound, how does the peak plasma levels (following smoking of the equivalent of 10-15 mg over 5-7 minutes) read?
Its peak plasma levels is “around 100 μg/L”.

And the half-life (plasma, when cannabis is smoked)?
The half-life was 2 h.

What about the Bioavailability (smoking route) of the same compound?
Its Bioavailability is 2-56%.

Which results are given for Cannabigerol [CBG]?
DNBS-induced intestinal inflammation and permeability [2]: attenuated; Interleuken-1β (IL-1β) levels ([2]; DNBS): reduced; myeloperoxidase (MPO) activity ([2]; DNBS): reduced
